Several values for one entry are separate records, joined by “and”; a condition that tells them apart may be missing. Equal entries are not always repeated.
How the values were obtained:
Experiment in all cases: Post-emergence glasshouse herbicide test, visual phytotoxicity
Assay type in all cases: in vivo
Conditions in all cases: 13 days
[1] = test system: Chenopodium album (CHEAL)
Description: (§1) Seeds of Setaria faberi (SETFA), Echinochloa crus-galli (ECHCG), Digitaria sanguinalis (DIGSA), Lolium perenne (LOLPE), Alopecurus myosuroides (ALOMY), Chenopodium album (CHEAL), Ipomoea hederacea (IPOHE), Stellaria media (STEME), Abutilon threophrasti (ABUTH) and Amaranthus retroflexus (AMARE) were sown in standard sterilised soil in pots. After cultivation for 8 days under controlled conditions in a glasshouse (at 24/19° C., day/night; 16 hours light; no humidity control), the plants were sprayed at 500 l/Ha with an aqueous spray solution derived from the formulation of the technical active ingredients in a small amount of acetone and a solvent and emulsifier mixture referred to as IF50 (11.12% Emulsogen EL360 TM+44.44% N-methylpyrrolidone+44.44% Dowanol DPM glycol ether), to create a 50 g/l solution which was then diluted using 0.2% Genapol X080 (CAS Number: 9043-30-5) as diluent to give the desired final dose of test compound.
(§2) Where active ingredients were applied as mixtures, aqueous spray solutions were prepared as above, containing both active ingredients.
(§3) The test plants were then grown under controlled conditions in a glasshouse (at 24/18° C., day/night; 15 hours light; 50% humidity) and watered twice daily. After 13 days, the test was evaluated visually for percentage phytotoxicity to the plants (where 100=total damage to plant; 0=no damage to plant; and NC=not captured) when compared to control untreated plants. Two to four replicates were applied for each treatment in a randomised block test design.
(§4) 22., E=X+Y−(X*Y/100), where • X=average percent phytotoxicity of herbicide A when applied at a certain rate • Y=average percent phytotoxicity using herbicide B when applied at a certain rate • E=the expected effect of the mixture of herbicides A and B as calculated from the Colby formula.

[2] = test system: Digitaria sanguinalis (DIGSA)
Description: as §1, §2, §3, §4

Lolium perenne (LOLPE) = test system: Lolium perenne (LOLPE)
Description: as §1, §2, §3, §4

[3] = test system: Abutilon threophrasti (ABUTH)
Description: as §1, §2, §3, §4

[4] = test system: Echinochloa crus-galli (ECHCG)
Description: as §1, §2, §3, §4

Setaria faberi (SETFA) = test system: Setaria faberi (SETFA)
Description: as §1, §2, §3, §4

[5] = test system: Amaranthus retroflexus (AMARE)
Description: as §1, §2, §3, §4

[6] = test system: Alopecurus myosuroides (ALOMY)
Description: as §1, §2, §3, §4

[7] = test system: Ipomoea hederacea (IPOHE)
Description: as §1, §2, §3, §4

Stellaria media (STEME) = test system: Stellaria media (STEME)
Description: as §1, §2, §3, §4

Structure (SMILES): CC1(C)CN(Cc2ccccc2NS(=O)(=O)C(F)(F)F)C1=O [B-IV]
- percentage phytotoxicity CHEAL ([1]; 31.25 g/ha): 15%
- percentage phytotoxicity CHEAL ([1]; 62.5 g/ha): 30%
- percentage phytotoxicity CHEAL ([1]; 125 g/ha): 15%
- percentage phytotoxicity CHEAL ([1]; 250 g/ha): 20%
- percentage phytotoxicity CHEAL ([1]; 500 g/ha): 58%
- percentage phytotoxicity DIGSA ([2]; 31.25 g/ha): 0%
- percentage phytotoxicity DIGSA ([2]; 62.5 g/ha): 0%
- percentage phytotoxicity DIGSA ([2]; 125 g/ha): 18%
- percentage phytotoxicity DIGSA ([2]; 250 g/ha): 38%
- percentage phytotoxicity DIGSA ([2]; 500 g/ha): 70%
- percentage phytotoxicity LOLPE (Lolium perenne (LOLPE); 31.25 g/ha): 0%
- percentage phytotoxicity LOLPE (Lolium perenne (LOLPE); 62.5 g/ha): 0%
- percentage phytotoxicity LOLPE (Lolium perenne (LOLPE); 125 g/ha): 33%
- percentage phytotoxicity LOLPE (Lolium perenne (LOLPE); 250 g/ha): 48%
- percentage phytotoxicity LOLPE (Lolium perenne (LOLPE); 500 g/ha): 80%
- percentage phytotoxicity ABUTH ([3]; 31.25 g/ha): 15%
- percentage phytotoxicity ABUTH ([3]; 62.5 g/ha): 3%
- percentage phytotoxicity ABUTH ([3]; 125 g/ha): 13%
- percentage phytotoxicity ABUTH ([3]; 250 g/ha): 45%
- percentage phytotoxicity ABUTH ([3]; 500 g/ha): 60%
- percentage phytotoxicity ECHCG ([4]; 31.25 g/ha): 0%
- percentage phytotoxicity ECHCG ([4]; 62.5 g/ha): 0%
- percentage phytotoxicity ECHCG ([4]; 125 g/ha): 45%
- percentage phytotoxicity ECHCG ([4]; 250 g/ha): 53%
- percentage phytotoxicity ECHCG ([4]; 500 g/ha): 63%
- percentage phytotoxicity SETFA (Setaria faberi (SETFA); 31.25 g/ha): 0%
- percentage phytotoxicity SETFA (Setaria faberi (SETFA); 62.5 g/ha): 0%
- percentage phytotoxicity SETFA (Setaria faberi (SETFA); 125 g/ha): 23% and 22%
- percentage phytotoxicity SETFA (Setaria faberi (SETFA); 250 g/ha): 48%
- percentage phytotoxicity SETFA (Setaria faberi (SETFA); 500 g/ha): 50%
- percentage phytotoxicity AMARE ([5]; 31.25 g/ha): 73%
- percentage phytotoxicity AMARE ([5]; 62.5 g/ha): 80%
- percentage phytotoxicity AMARE ([5]; 125 g/ha): 83%
- percentage phytotoxicity AMARE ([5]; 250 g/ha): 85%
- percentage phytotoxicity AMARE ([5]; 500 g/ha): 83%
- percentage phytotoxicity ALOMY ([6]; 31.25 g/ha): 0%
- percentage phytotoxicity ALOMY ([6]; 62.5 g/ha): 0%
- percentage phytotoxicity ALOMY ([6]; 125 g/ha): 23%
- percentage phytotoxicity ALOMY ([6]; 250 g/ha): 50%
- percentage phytotoxicity ALOMY ([6]; 500 g/ha): 73%
- percentage phytotoxicity IPOHE ([7]; 31.25 g/ha): 75%
- percentage phytotoxicity IPOHE ([7]; 62.5 g/ha): 35%
- percentage phytotoxicity IPOHE ([7]; 125 g/ha): 88%
- percentage phytotoxicity IPOHE ([7]; 250 g/ha): 89%
- percentage phytotoxicity IPOHE ([7]; 500 g/ha): 93%
- percentage phytotoxicity STEME (Stellaria media (STEME); 31.25 g/ha): 68%
- percentage phytotoxicity STEME (Stellaria media (STEME); 62.5 g/ha): 78%
- percentage phytotoxicity STEME (Stellaria media (STEME); 125 g/ha): 80%
- percentage phytotoxicity STEME (Stellaria media (STEME); 250 g/ha): 80%
- percentage phytotoxicity STEME (Stellaria media (STEME); 500 g/ha): 83%

Source: patent US20230284620A1, “MIXTURES OF PYRIDAZINES AS HERBICIDAL COMPOSITIONS” (SYNGENTA CROP PROTECTION AG, priority 2020, published 2023)
